Test results taken from PubChem BioAssay (NCI).
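Interpolation was linear, between the two tested concentrations surrounding the appropriate level; five concentrations were tested over 48 hours in 96-well plates. TGI denotes the concentration required for complete inhibition of growth.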

Experiments:
Experiment in all cases: DTP human tumour cell line panel, 48 h
HCT-116 colon = test system: HCT-116 colon
MOLT-4 leukemia = test system: MOLT-4 leukemia
SN12C renal = test system: SN12C renal
HOP-92 NSCLC = test system: HOP-92 NSCLC
T-47D breast = test system: T-47D breast
EKVX NSCLC = test system: EKVX NSCLC
SF-295 CNS = test system: SF-295 CNS
UACC-62 melanoma = test system: UACC-62 melanoma
SNB-75 CNS = test system: SNB-75 CNS
SNB-19 CNS = test system: SNB-19 CNS
OVCAR-8 ovarian = test system: OVCAR-8 ovarian
SF-539 CNS = test system: SF-539 CNS
MCF7 breast = test system: MCF7 breast
SK-MEL-2 melanoma = test system: SK-MEL-2 melanoma
RXF 393 renal = test system: RXF 393 renal
COLO 205 colon = test system: COLO 205 colon
A549 NSCLC = test system: A549 NSCLC

Compound	TGI (HCT-116 colon) [µM]	TGI (MOLT-4 leukemia) [µM]	TGI (SN12C renal) [µM]	TGI (HOP-92 NSCLC) [µM]	TGI (T-47D breast) [µM]	TGI (EKVX NSCLC) [µM]	TGI (SF-295 CNS) [µM]	TGI (UACC-62 melanoma) [µM]	TGI (SNB-75 CNS) [µM]	TGI (SNB-19 CNS) [µM]	TGI (OVCAR-8 ovarian) [µM]	TGI (SF-539 CNS) [µM]	TGI (MCF7 breast) [µM]	TGI (SK-MEL-2 melanoma) [µM]	TGI (RXF 393 renal) [µM]	TGI (COLO 205 colon) [µM]	TGI (A549 NSCLC) [µM]
Oc1cc(F)cc2cccnc12	> 20.9	1.97	> 94.3	3.1	> 74.7	> 100	> 100	> 42.6	> 100	> 100	> 100	30	> 39.7	> 100	46.4	> 53.4	> 50.8
CCCCCCCCCCCCCCCCCCOC(COP(=O)(O)OCC1OC(n2cc(F)c(=O)[nH]c2=O)CC1O)COP(=O)(O)OCC1OC(n2ccc(N)nc2=O)C(O)C1O (configuration not stated)	> 100	> 79.8	> 100	> 94.8	> 100	> 100	> 100	> 100	> 100	41.2	> 100	31.1	> 100	> 100	49.6	> 72.9	> 63.6
CCOC(=O)/C=C(/C(=O)OCC)n1cc(C)c(=O)[nH]c1=O	5.74	6.51	12.3	3.72	17.5	15.6	31.6	15.8	23.7	32.2	9.81	27.3	12.7	18.4	4.52	4.07	31.5
COC(=O)C1=C(C(=O)OC)N(c2ccncc2)C(c2ccco2)=CC1c1ccccc1[N+](=O)[O-] (configuration not stated)	2.7	6.17	9.72	32.4	12.9	15.9	15.8	27	16.3	41	28.8	3.6	7.06	36.1	10.6	10.2	31.3
CCOC(=O)c1nc2ccc(C(F)(F)F)cc2nc1NCc1ccc(F)cc1	> 100	> 100	> 100	29.2	84.8	> 100	> 100	> 100	> 100	> 100	> 100	> 100	> 100	> 100	> 100	81	> 100
COC(OC)[C@@H]1OC[C@H](n2ccc(=O)[nH]c2=O)[C@H]1O	> 100	> 100	> 100	> 100	> 100	> 100	> 100	> 100	> 100	> 100		> 100	> 100	> 100	> 100	> 100	> 100
CC(O)/C=C/C1OC(=O)CC1Nc1ccc(C=O)cc1 (configuration not stated)	> 100	77.5	> 100	66.5	> 100	> 100	> 100	58.1	> 100	> 100	> 100	> 100	> 100	74.7	> 100	> 100	> 100
C=CCc1cccc(/C(O)=C/C(=O)/C=C/c2ccccc2Cl)c1O	> 54.3	15.6	> 100	55.2	> 100	> 100	> 87.7	43.3	> 100	> 84	25.5	72	> 100	26.2	75.8	> 58.7	> 100
CCOC(=O)/C=C(\C(=O)OCC)n1cc(C)c(=O)n(Cc2cn(COCCOC(C)=O)nn2)c1=O	80.4	22	63.3	3.91	> 100	22.5	46.3	33.8	36	39	21.3	9.74	22	34.5	93.2	11.1	56.8
COc1ccc(N2C(=O)C3c4[nH]c5ccc(OC)cc5c4C4CCC(c5ccccc5)CC4C3C2=O)cc1 (configuration not stated)	22.7	16.9	27.9	35.9	86.3	52	24.2	36.4	16.7	28.8	> 49.2	13.9	> 85.4	47.4	25	> 86.1	40.3
CCOC(=O)n1ccc2c(C(=O)OC)c(C(=O)OC)cc(/C(=C/C(=O)OC)C(=O)OC)c21	> 100	> 100	> 100	> 100	> 100	> 100	> 100	> 100	> 100	> 100	> 100	> 100	> 100	> 100	> 100	> 100	> 100
O=C(/C=C/c1ccc(O)c(O)c1)O[C@H]1CCCC[C@@H]1OC(=O)/C=C/c1ccc(O)c(O)c1	19	> 100	50.1	52.1	98.8	53.8	33.3	27.4	> 100	73.8	57.1	> 100	70.2	84.3	27.6	56.2	> 100
Clc1ccc(C2=Cc3nc2c(-c2ccccc2)c2ccc([nH]2)c(-c2ccccc2)c2nc(c(-c4ccccc4)c4ccc([nH]4)c3-c3ccccc3)C=C2)cc1	> 62.5	> 62.5	> 62.5	> 62.5	> 62.5	> 62.5	> 62.5	> 62.5	> 62.5	> 62.5	> 62.5	> 62.5	> 62.5	> 62.5	> 62.5	> 62.5	> 62.5
O=C1C2CCCCC2C(=O)N1n1c(Cc2ccccc2)n[nH]c1=O (configuration not stated)	> 100	> 100	> 100	> 100	> 100	> 100	> 100	> 100	> 100	> 100	> 100	> 100	> 100	> 100	> 100	> 100	> 100
